EP1202975B1, “SUBSTITUTED POLYCYCLIC ARYL AND HETEROARYL PYRAZINONES USEFUL FOR SELECTIVE INHIBITION OF THE COAGULATION CASCADE” (Pharmacia Corporation, priority 1999, dated 2000)
Where two headings read alike, the source gives them in different places.

Legend:
TF-VIIa = target: T1, TF-VIIa (Homo sapiens, UniProt P08709); test: TF-VIIa Assay; format: biochemical
T1 construct: 2nM recombinant human factor VIIa; purchased American Diagnostica, Greenwich CT; host or cells: soluble TF made in house in E. coli
T1 sequence (P08709 213-466 limits assumed): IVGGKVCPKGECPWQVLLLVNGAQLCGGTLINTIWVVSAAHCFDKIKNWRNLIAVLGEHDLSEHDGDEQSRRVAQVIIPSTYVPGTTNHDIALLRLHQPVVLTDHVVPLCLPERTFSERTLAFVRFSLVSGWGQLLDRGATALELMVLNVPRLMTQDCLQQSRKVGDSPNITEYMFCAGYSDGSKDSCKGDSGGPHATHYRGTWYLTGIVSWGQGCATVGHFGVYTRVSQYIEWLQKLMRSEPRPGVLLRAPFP
T1 sequence (P08709 61-212 limits assumed): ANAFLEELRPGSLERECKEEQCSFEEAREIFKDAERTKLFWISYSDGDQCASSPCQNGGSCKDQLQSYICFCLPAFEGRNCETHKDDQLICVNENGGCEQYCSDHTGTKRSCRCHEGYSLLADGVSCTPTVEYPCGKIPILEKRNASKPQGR
T1 sequence (P13726 33-251 partner limits assumed): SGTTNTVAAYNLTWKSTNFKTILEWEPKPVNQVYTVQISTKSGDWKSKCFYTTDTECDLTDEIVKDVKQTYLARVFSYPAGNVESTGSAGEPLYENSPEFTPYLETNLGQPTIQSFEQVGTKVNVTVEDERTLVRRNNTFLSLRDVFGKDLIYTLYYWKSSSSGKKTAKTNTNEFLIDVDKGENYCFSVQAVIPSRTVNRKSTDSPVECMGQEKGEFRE

Human factor Xa = Human factor Xa (Homo sapiens, UniProt P00742)
Sequence of Human factor Xa (P00742 235-488 limits assumed): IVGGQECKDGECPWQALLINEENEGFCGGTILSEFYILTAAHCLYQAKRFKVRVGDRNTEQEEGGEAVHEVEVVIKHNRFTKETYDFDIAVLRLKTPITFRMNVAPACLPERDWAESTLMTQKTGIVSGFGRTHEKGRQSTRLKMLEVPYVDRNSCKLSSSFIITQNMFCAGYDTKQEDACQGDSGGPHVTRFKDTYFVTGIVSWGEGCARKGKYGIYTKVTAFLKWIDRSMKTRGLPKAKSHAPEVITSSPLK
Sequence of Human factor Xa (P00742 41-179 limits assumed): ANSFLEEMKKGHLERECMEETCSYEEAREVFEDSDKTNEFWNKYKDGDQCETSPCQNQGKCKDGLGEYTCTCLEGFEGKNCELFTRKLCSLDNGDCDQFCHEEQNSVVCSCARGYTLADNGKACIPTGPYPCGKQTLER

[1] = read-out: IC50 or % Inhibition TF-VIIa (30 µM); cells given as a plain number (IC50)
[2] = cells given as a plain number (IC50); read-out: IC50 or % Inhibition TF-VIIa (30 µM)

| Compound | IC50 (TF-VIIa; [1]) [µM] | IC50 or % Inhibition Factor Xa (30 µM) (Human factor Xa) [%] | IC50 (TF-VIIa; [2]) [µM] | IC50 or % Inhibition TF-VIIa (30 µM) (TF-VIIa) [%] |
| --- | --- | --- | --- | --- |
| N=C(N)c1ccc(CNC(=O)Cn2c(-c3ccccc3)c(Cl)nc(NCCC3=CCCCC3)c2=O)cc1 [1507-17] | 27.4 | 16 |  |  |
| N=C(N)c1ccc(CNC(=O)Cn2c(-c3ccccc3)c(Cl)nc(NCCCN3CCCC3=O)c2=O)cc1 [1507-19] | 12.9 | 4 |  |  |
| N=C(N)c1ccc(CNC(=O)Cn2c(-c3ccccc3)c(Cl)nc(NC3CCC3)c2=O)cc1 [1507-21] |  | 23 | 0.4 |  |
| N=C(N)c1ccc(CNC(=O)Cn2c(-c3ccccc3)c(Cl)nc(NCc3ccccn3)c2=O)cc1 [1507-24] |  | 15 |  | 0 |
| N=C(N)c1ccc(CNC(=O)Cn2c(-c3ccccc3)c(Cl)nc(NC(c3ccccc3)c3ccccc3)c2=O)cc1 [1507-35] | 19.9 | 28 |  |  |
| N=C(N)c1ccc(CNC(=O)Cn2c(-c3ccccc3)c(Cl)nc(NCc3cc(C(F)(F)F)cc(C(F)(F)F)c3)c2=O)cc1 [1507-40] | 5.7 | 11 |  |  |
| N=C(N)c1ccc(CNC(=O)Cn2c(-c3ccccc3)c(Cl)nc(NCC(F)(F)F)c2=O)cc1 [1507-41] |  | 17 |  | 48 |
| N=C(N)c1ccc(CNC(=O)Cn2c(-c3ccccc3)c(Cl)nc(NCCCCc3ccccc3)c2=O)cc1 [1507-43] |  | 21 | 4.1 |  |
| N=C(N)c1ccc(CNC(=O)Cn2c(-c3ccccc3)c(Cl)nc(NCCc3ccc(Cl)c(Cl)c3)c2=O)cc1 [1507-44] | 6 | 9 |  |  |
| N=C(N)c1ccc(CNC(=O)Cn2c(-c3ccccc3)c(Cl)nc(NCc3ccc(Cl)cc3)c2=O)cc1 [1507-46] |  | 8 | 4.3 |  |
| CN(C)CCCNc1nc(Cl)c(-c2ccccc2)n(CC(=O)NCc2ccc(C(=N)N)cc2)c1=O [1507-47] |  | 19 | 17.6 |  |
| N=C(N)c1ccc(CNC(=O)Cn2c(-c3ccccc3)c(Cl)nc(NCC3COc4ccccc4O3)c2=O)cc1 (stereo not shown) [1512-01] | 18 | 4 |  |  |
| COc1cccc(CNc2nc(Cl)c(-c3ccccc3)n(CC(=O)NCc3ccc(C(=N)N)cc3)c2=O)c1OC [1512-02] | 19.2 | 3 |  |  |
| COc1ccc(CCNc2nc(Cl)c(-c3ccccc3)n(CC(=O)NCc3ccc(C(=N)N)cc3)c2=O)cc1OC [1512-05] | 16.7 | 10 |  |  |
| N=C(N)c1ccc(CNC(=O)Cn2c(-c3ccccc3)c(Cl)nc(NCCCc3ccccc3)c2=O)cc1 [1512-06] |  | 4 | 12.6 |  |
| CCOc1ccccc1CNc1nc(Cl)c(-c2ccccc2)n(CC(=O)NCc2ccc(C(=N)N)cc2)c1=O [1512-11] | 30 | 5 |  |  |
| CCCCC(CC)Nc1nc(Cl)c(-c2ccccc2)n(CC(=O)NCc2ccc(C(=N)N)cc2)c1=O (stereo not shown) [1512-12] | 11.3 | 5 |  |  |
| CN(C)CCNc1nc(Cl)c(-c2ccccc2)n(CC(=O)NCc2ccc(C(=N)N)cc2)c1=O [1512-15] |  | 6 | 20.9 |  |
| CC1CCCC(Nc2nc(Cl)c(-c3ccccc3)n(CC(=O)NCc3ccc(C(=N)N)cc3)c2=O)C1C (stereo not shown) [1512-23] | 14.6 | 6 |  |  |
| N=C(N)c1ccc(CNC(=O)Cn2c(-c3ccccc3)c(Cl)nc(NCc3ccc(C(F)(F)F)cc3F)c2=O)cc1 [1512-26] | 26.9 | 5 |  |  |
| N=C(N)c1ccc(CNC(=O)Cn2c(-c3ccccc3)c(Cl)nc(NCc3cc(C(F)(F)F)ccc3F)c2=O)cc1 [1512-27] | 16.5 | 3 |  |  |
| N=C(N)c1ccc(CNC(=O)Cn2c(-c3ccccc3)c(Cl)nc(NCc3cc(F)cc(C(F)(F)F)c3)c2=O)cc1 [1512-29] |  | 4 |  | 47 |
| Cc1cccc(Cl)c1CNc1nc(Cl)c(-c2ccccc2)n(CC(=O)NCc2ccc(C(=N)N)cc2)c1=O [1512-31] |  | 14 |  | 43 |
| N=C(N)c1ccc(CNC(=O)Cn2c(-c3ccccc3)c(Cl)nc(NCc3cc(F)c(F)c(F)c3)c2=O)cc1 [1512-32] | 21.9 | 5 |  |  |

| Compound | IC50 (TF-VIIa; [1]) [µM] | IC50 or % Inhibition Factor Xa (30 µM) (Human factor Xa) [%] | IC50 (TF-VIIa; [2]) [µM] | IC50 or % Inhibition TF-VIIa (30 µM) (TF-VIIa) [%] |
| --- | --- | --- | --- | --- |
| N=C(N)c1ccc(CNC(=O)Cn2c(-c3ccccc3)c(Cl)nc(NCc3cc(Cl)ccc3Cl)c2=O)cc1 [1512-35] | 22.5 | 4 |  |  |
| N=C(N)c1ccc(CNC(=O)Cn2c(-c3ccccc3)c(Cl)nc(NCc3cc(F)ccc3F)c2=O)cc1 [1512-36] |  | 9 | 3.8 |  |
| N=C(N)c1ccc(CNC(=O)Cn2c(-c3ccccc3)c(Cl)nc(NCc3cc(F)cc(F)c3)c2=O)cc1 [1512-39] |  | 4 | 6 |  |
| N=C(N)c1ccc(CNC(=O)Cn2c(-c3ccccc3)c(Cl)nc(NCc3cccc(OC(F)(F)F)c3)c2=O)cc1 [1512-40] |  | 3 |  | 40 |
| N=C(N)c1ccc(CNC(=O)Cn2c(-c3ccccc3)c(Cl)nc(NCCc3cccc(C(F)(F)F)c3)c2=O)cc1 [1512-41] |  | 4 | 30 |  |
| N=C(N)c1ccc(CNC(=O)Cn2c(-c3ccccc3)c(Cl)nc(NCc3ccccc3OC(F)(F)F)c2=O)cc1 [1512-42] | 25 | 1 |  |  |
| N=C(N)c1ccc(CNC(=O)Cn2c(-c3ccccc3)c(Cl)nc(NCc3c(F)cccc3F)c2=O)cc1 [1512-43] | 11 | 9 |  |  |
| N=C(N)c1ccc(CNC(=O)Cn2c(-c3ccccc3)c(Cl)nc(NCc3c(F)cccc3C(F)(F)F)c2=O)cc1 [1512-44] |  | 6 |  | 43 |
| Cc1cc(Cl)cc(Cl)c1CNc1nc(Cl)c(-c2ccccc2)n(CC(=O)NCc2ccc(C(=N)N)cc2)c1=O [1512-45] |  | 11 |  | 27 |
| CN1CCCC1CCNc1nc(Cl)c(-c2ccccc2)n(CC(=O)NCc2ccc(C(=N)N)cc2)c1=O (stereo not shown) [1512-46] | 11.7 | 10 |  |  |
| N=C(N)c1ccc(CNC(=O)Cn2c(-c3ccccc3)c(Cl)nc(NCCc3ccccn3)c2=O)cc1 [1512-47] | 3.5 | 13 |  |  |
| N=C(N)c1ccc(CNC(=O)Cn2c(-c3ccsc3)c(Cl)nc(NCc3ccccc3)c2=O)cc1 [1517-01] | 1.2 | 0 |  |  |
| C[C@@H](C(=O)NCc1ccc(C(=N)N)cc1)n1c(-c2ccccc2)c(Cl)nc(NCc2ccccc2)c1=O [1517-03] | 9 | 0 |  |  |
| CSCC(C(=O)NCc1ccc(C(=N)N)cc1)n1c(-c2ccccc2)c(Cl)nc(NCc2ccccc2)c1=O (stereo not shown) [1517-04] | 5.7 | 0 |  |  |
| C[C@H](C(=O)NCc1ccc(C(=N)N)cc1)n1c(-c2ccccc2)c(Cl)nc(NCc2ccccc2)c1=O [1517-05] | 4.6 | 0 |  |  |
| N=C(N)c1ccc(CNC(=O)Cn2c(-c3c(Cl)cccc3Cl)c(Cl)nc(NCc3ccccc3)c2=O)cc1 [1517-06] | 2.5 | 0 |  |  |
| N=C(N)c1ccc(CNC(=O)Cn2c(-c3ccsc3)c(Cl)nc(NC3CCC3)c2=O)cc1 [1517-07] | 0.4 | 0 |  |  |
| N=C(N)c1ccc(CNC(=O)C(Cc2ccccc2)n2c(-c3ccccc3)c(Cl)nc(NC3CCC3)c2=O)cc1 (stereo not shown) [1517-08] |  | 0 |  | 43 |
| C[C@@H](C(=O)NCc1ccc(C(=N)N)cc1)n1c(-c2ccccc2)c(Cl)nc(NC2CCC2)c1=O [1517-09] | 2.6 | 0 |  |  |
| CSCC(C(=O)NCc1ccc(C(=N)N)cc1)n1c(-c2ccccc2)c(Cl)nc(NC2CCC2)c1=O (stereo not shown) [1517-10] | 2 | 0 |  |  |
| C[C@H](C(=O)NCc1ccc(C(=N)N)cc1)n1c(-c2ccccc2)c(Cl)nc(NC2CCC2)c1=O [1517-11] | 3 | 0 |  |  |
| N=C(N)c1ccc(CNC(=O)Cn2c(-c3c(Cl)cccc3Cl)c(Cl)nc(NC3CCC3)c2=O)cc1 [1517-12] | 0.8 | 0 |  |  |
| N=C(N)c1ccc(CNC(=O)Cn2c(-c3ccsc3)c(Cl)nc(NCCc3ccccc3)c2=O)cc1 [1517-13] | 0.6 | 0 |  |  |
